In brackets after ≈: the same amount, converted by molar mass. Where two headings read alike, the source gives them in different places.

Assay type in all cases: cell-based
In one experiment the test system is C. ramosum. The experiment in a line: microbe, parasite or virus in culture. Conditions: Thomasclavelia ramosa; clinical isolates, n=10.
Another experiment relates to C. perfringens. Briefly: microbe, parasite or virus in culture.
The next experiment has as its system Enterococcus sp. The experiment in a line: MIC, clinical isolates (Table 3). The source says: (§1) Compound I was additionally tested against anaerobic clinical isolates and against aerobic bacteria. […] The compound was also active against clinical strains of Staphylococcus sp. and Enterococcus sp.
Experiment [1] relates to Bacteroides fragilis group. Briefly: microbe, parasite or virus in culture. The conditions noted are these: Bacteroides fragilis; clinical gastrointestinal isolates, n=54.
Another experiment concerns Clostridium difficile. Briefly: MIC, 207 clinical isolates of C. difficile.
Text: as §1

Take `CCc1c(Cl)c(O)c(Cl)c(O)c1C(=O)O[C@H]1[C@H](O)[C@H](OC)[C@H](OC/C2=C\C=C\C[C@H](O)/C(C)=C/[C@H](CC)C(O[C@@H]3OC(C)(C)[C@@H](OC(=O)C(C)C)[C@H](O)[C@@H]3O)/C(C)=C/C(C)=C/C[C@@H](C(C)O)OC2=O)O[C@@H]1C` (some centres unmarked) [Compound I]: the MIC50 in the experiment with C. ramosum was greater than 1020 µg/mL; in the experiment with C. perfringens (Clostridium perfringens), 0.062 µg/mL (≈ 0.0586 µM); in the experiment with Enterococcus sp. (Enterococcus, clinical isolates, n=8), 4 µg/mL (≈ 3.78 µM); in experiment [1] it was 512 µg/mL (≈ 484 µM); with Clostridium difficile (Clostridioides difficile, clinical isolates, n=207, read-out: MIC50), 0.0019 µg/mL (≈ 0.0018 µM); in the experiment on Clostridium difficile (clinical isolates, n=207), 0.002 µg/mL (≈ 0.00189 µM). In addition, the MIC90 was greater than 1020 µg/mL in the experiment with C. ramosum; 0.062 µg/mL (≈ 0.0586 µM) in the experiment with C. perfringens (Clostridium perfringens); greater than 1020 µg/mL in experiment [1]; 0.008 µg/mL (≈ 0.00756 µM) in the experiment on Clostridium difficile (Clostridioides difficile, clinical isolates, n=207). For the same compound, the “Range (MIC)” value in the experiment with C. perfringens (clinical isolates, n=14) was 0.062 µg/mL; in the experiment on Enterococcus sp. (clinical isolates, n=8, in µg/mL) it was 1-8. Besides, the “activity (in words)” value with Enterococcus sp. (clinical strains) was “active”. In the experiment on Clostridium difficile (panel of 207 C. difficile clinical isolates), the “sensitivity of isolates (in words)” value is recorded as “very sensitive”.
